Experimental data from patent US20040198788A1, “Medicinal compositions containing angiotensin II receptor antagonist” (SANKYO COMPANY, LIMITED, priority 2001, published 2004).

System: Watanabe heritable hyperlipidemic (WHHL) rabbits
Experiment: Determination of aortic lesioned area
Assay type: in vivo, rabbit
Conditions: olmesartan 0.5 mg/kg, compound A 20 mg/kg
Description: Determination of Aortic Lesioned Area Watanabe heritable hyperlipidemic (WHHL) rabbits aged 16 weeks were divided in 4 groups consisting of 12 or 13 animals each: control group (5% gum arabic solution), olmesartan (0.5 mg/kg) group, compound A (20 mg/kg) group, and combination group of olmesartan (0.5 mg/kg) and compound A (20 mg/kg). These test agents were orally administered for 24 weeks. After the 24th week, the rabbits were sacrificed and their aorta were isolated to determine the aortic lumen area and arteriosclerotic lesion area in the aortic lumen. Then the percentage of arteriosclerotic lesion area in the aortic lumen [arteriosclerotic lesion area in the aortic lumen/the aortic lumen area]×100 (%)] was calculated.

SMILES: CCCCCCCCN1CCc2c(C)c(CC(=O)O)c(C)c(NC(=O)C(C)(C)C)c21.O=S(=O)(O)O [compound A, N-(1-octyl-5-carboxymethyl-4,6-dimethylindolin-7-yl)-2,2-dimethylpropaneamide sulfate]
- lesion area in % (percentage of arteriosclerotic lesion area in the aortic lumen) (WHHL rabbits aged 16 weeks, oral administration for 24 weeks, control group 59.7): 59.0%
- arteriosclerotic lesion area compared with control / single-administration groups (in words) (WHHL rabbits, oral, 24 weeks): little affected
